Measurements from article PMC5487340, “Peptides derived from MARCKS block coagulation complex assembly on phosphatidylserine” (Scientific Reports, 2017).

Experiments:
[1] = tested on: fibrin formation in whole human blood; experiment: Whole blood microfluidic flow assay; format: cell-based; conditions: whole human blood over collagen, 10 min, wall shear rate 100 s^-1, 1 μM peptide or annexin V, heparin 15 USP ml^-1, n = 6
Description: Effects on whole blood platelet activation and accumulation, as well as fibrin formation, were examined using a modification of a previously described microfluidic flow assay. A custom polydimethylsiloxane microfluidic flow device containing four channels, each with a height of 100 μm and width of 500 μm, was vacuum mounted to a glass slide patterned with a type I fibrillar collagen strip (Chrono-log). The microfluidic flow device channels were oriented perpendicular to the patterned collagen strip, resulting in a 50 μm patch of collagen across the width of each channel. Whole blood was labeled with a Pacific Blue anti-human CD41 antibody (BioLegend) for 10 min, followed by the addition of 30 μg ml^−1 Alexa Fluor 647 human plasma fibrinogen conjugate (Life Technologies) and either 1 μM NBD labeled investigational peptide, 1 μM annexin V (BioVision), or 15 USP ml^−1 heparin. Immediately before the assay, the whole blood mixture was recalcified to 7.5 mM CaCl2. The whole blood was then pulled through the device channels for 10 min at wall shear rate 100 s^−1 using a PhD Ultra syringe pump (Harvard Apparatus, Holliston, MA). […] Fluorescence intensities and platelet surface area coverages were measured using ImageJ (NIH, Bethesda, MD). […]

[2] = tested on: prothrombinase (bovine FXa and FVa) on washed human platelets activated by convulxin and thrombin; experiment: Platelet-dependent prothrombinase assay; format: biochemical; conditions: 1 μM, washed human platelets with convulxin and thrombin, thrombin Vmax with S-2238, n = 8
Experimental: Human whole blood was collected from healthy volunteers by venipuncture into 3.2% sodium citrate. Washed platelets were prepared from whole blood collected by venipuncture into 3.8% sodium citrate and acid-citrate-dextrose (ACD). Platelet-rich plasma (PRP) was prepared by centrifugation of whole blood at 200 g for 20 min. Platelets were isolated from the PRP by centrifugation at 1000 g for 10 min with 0.1 μg ml^−1 prostacyclin (PGI2) (Sigma-Aldrich). The resulting pellet was resuspended with modified Tyrode’s buffer (129 mM NaCl, 20 mM HEPES, 12 mM NaHCO3, 2.9 mM KCl, 1.0 mM MgCl2, 0.34 mM Na2HPO4, 5 mM glucose, pH 7.3), ACD, and 0.1 μg ml^−1 PGI2. Platelets were then washed by re-pelleting at 1000 g for 10 min and re-suspending with modified Tyrode’s buffer.
Effects on coagulation factor enzymatic activity were determined using a modification of a previously described prothrombinase assay, [55]. Washed human platelets (8 × 10^5 reaction^−1) were incubated at 37 °C with either a buffer blank or 375 ng ml^−1 convulxin (Centerchem, Norwalk, CT) and 5.0 nM thrombin (Haematologic Technologies) in modified Tyrode’s buffer containing 2.9 mM CaCl2 and 0.05% wt vol^−1 fatty acid-free bovine serum albumin (BSA). After 7 min, 1 μM investigational peptide or protein, or a buffer blank, was added, followed 3 min later by bovine FXa (3 nM) and FVa (6 nM) (Haematologic Technologies). […]

[3] = tested on: P-selectin positive platelets; experiment: Flow cytometry of binding to platelets; format: cell-based; conditions: washed human platelets, 1 μM NBD labeled peptide, 30 min, n = 6
Experimental: Human whole blood was collected from healthy volunteers by venipuncture into 3.2% sodium citrate. Washed platelets were prepared from whole blood collected by venipuncture into 3.8% sodium citrate and acid-citrate-dextrose (ACD). Platelet-rich plasma (PRP) was prepared by centrifugation of whole blood at 200 g for 20 min. Platelets were isolated from the PRP by centrifugation at 1000 g for 10 min with 0.1 μg ml^−1 prostacyclin (PGI2) (Sigma-Aldrich). The resulting pellet was resuspended with modified Tyrode’s buffer (129 mM NaCl, 20 mM HEPES, 12 mM NaHCO3, 2.9 mM KCl, 1.0 mM MgCl2, 0.34 mM Na2HPO4, 5 mM glucose, pH 7.3), ACD, and 0.1 μg ml^−1 PGI2. Platelets were then washed by re-pelleting at 1000 g for 10 min and re-suspending with modified Tyrode’s buffer. Washed platelets were obtained from the whole blood as described above. The platelets were resuspended in modified Tyrode’s buffer containing 2 mM CaCl2, counted, and diluted to 2 × 10^4 platelets μL^−1. Platelets were stimulated with either 1 IU ml^−1 thrombin (Chrono-log, Havertown, PA), 250 ng ml^−1 convulxin (Centerchem), 1 IU ml^−1 thrombin and 250 ng ml^−1 convulxin, or left unstimulated for 10 min at room temperature. […] The samples were then immediately fixed in 1% paraformaldehyde, diluted, and analyzed on a MoFlo Astrios EQ flow cytometer (Beckman Coulter, Brea, CA) with appropriate color compensation.

heparin
fibrin formation on adherent platelets (in words) [1]: equivalent fibrin formation inhibition to that of the MARCKS ED peptides

H-GGDYDKIGKNDA-NH2 [C2BL3-L, NH2-GGDYDKIGKNDA-CONH2]
reduction in prothrombinase activity [2]: 17%

B1: annexin V: PS binding protein, positive control (protein)
chain: MAQVLRGTVTDFPGFDERADAETLRKAMKGLGTDEESILTLLTSRSNAQRQEISAAFKTLFGRDLLDDLKSELTGKFEKLIVALMKPSRLYDAYELKHALKGAGTNEKVLTEIIASRTPEELRAIKQVYEEEYGSSLEDDVVGDTSGYYQRMLVVLLQANRDPDAGIDEAQVEQDAQALFQAGELKWGTDEEKFITIFGTRSVSHLRKVFDKYMTISGFQIEETIDRETSGNLEQLLLAVVKSIRSIPAYLAETLYYAMKGAGTDDHTLIRVMVSRSEIDLFNIRKEFRKNFATSLYSMIKGDTSGDYKKALLLLCGEDD
labeling of unstimulated platelets [3]: Neither D-MARCKS ED nor annexin V labeled the unstimulated platelets | fibrin formation on adherent platelets (in words) [1]: equivalent fibrin formation inhibition to that of the MARCKS ED peptides
